In ChEMBL document CHEMBL1949655, “Neomycin-phenolic conjugates: polycationic amphiphiles with broad-spectrum antibacterial activity, low hemolytic activity and weak serum protein binding” (Bioorg Med Chem Lett, 2012):
Converted amounts (≈) assume the structure as drawn.

Columns and labels:
Acinetobacter baumannii [1] = test: microbe, parasite or virus in culture; format: functional; details: isolate CAN-ICU 63169, 24 h
Description: Antibacterial activity against Acinetobacter baumannii isolate CAN-ICU 63169 after 24 hrs by macrobroth dilution method in the presence of bovine serum albumin

Escherichia coli [2] = test: microbe, parasite or virus in culture; format: functional; details: isolate CAN-ICU 61714, 24 h
Description: Antibacterial activity against Escherichia coli isolate CAN-ICU 61714 after 24 hrs by macrobroth dilution method

Klebsiella pneumoniae [3] = test: microbe, parasite or virus in culture; format: functional; details: ATCC 13883, 24 h
Description: Antibacterial activity against Klebsiella pneumoniae ATCC 13883 after 24 hrs by macrobroth dilution method in the presence of bovine serum albumin

Enterococcus faecalis [4] = test: microbe, parasite or virus in culture; format: functional; details: ATCC 29212, 24 h
Description: Antibacterial activity against Enterococcus faecalis ATCC 29212 after 24 hrs by macrobroth dilution method in the presence of bovine serum albumin

Streptococcus pneumoniae [5] = test: microbe, parasite or virus in culture; format: functional; details: ATCC 49619, 24 h
Description: Antibacterial activity against Streptococcus pneumoniae ATCC 49619 after 24 hrs by macrobroth dilution method in the presence of bovine serum albumin

[6] = system: Staphylococcus epidermidis; test: microbe, parasite or virus in culture; format: functional; details: Staphylococcus epidermidis, 81388, 24 h
Description: Antibacterial activity against methicillin-susceptible Staphylococcus epidermidis 81388 after 24 hrs by macrobroth dilution method

[7] = system: Stenotrophomonas maltophilia; test: microbe, parasite or virus in culture; format: functional; details: isolate CAN-ICU 62584, 24 h
Description: Antibacterial activity against Stenotrophomonas maltophilia isolate CAN-ICU 62584 after 24 hrs by macrobroth dilution method in the presence of bovine serum albumin

Staphylococcus aureus [8] = test: microbe, parasite or virus in culture; format: functional; details: ATCC 29213, 24 h
Description: Antibacterial activity against Staphylococcus aureus ATCC 29213 after 24 hrs by macrobroth dilution method in the presence of bovine serum albumin

[9] = system: Staphylococcus epidermidis; test: microbe, parasite or virus in culture; format: functional, isolate CAN-ICU 61589; details: isolate CAN-ICU61589, 24 h
Description: Antibacterial activity against methicillin-resistant Staphylococcus epidermidis isolate CAN-ICU 61589 after 24 hrs by macrobroth dilution method in the presence of bovine serum albumin

Enterococcus faecium [10] = test: microbe, parasite or virus in culture; format: functional; details: ATCC 27270, 24 h
Description: Antibacterial activity against Enterococcus faecium ATCC 27270 after 24 hrs by macrobroth dilution method in the presence of bovine serum albumin

Pseudomonas aeruginosa [11] = test: microbe, parasite or virus in culture; format: functional; details: isolate CAN-ICU 62308, 24 h
Description: Antibacterial activity against Pseudomonas aeruginosa isolate CAN-ICU 62308 after 24 hrs by macrobroth dilution method in the presence of bovine serum albumin

Staphylococcus aureus [12] = test: microbe, parasite or virus in culture; format: functional; details: ATCC 33592, 24 h
Description: Antibacterial activity against methicillin-resistant Staphylococcus aureus ATCC 33592 after 24 hrs by macrobroth dilution method

Escherichia coli [13] = test: microbe, parasite or virus in culture; format: functional; details: ATCC 25922, 24 h
Description: Antibacterial activity against Escherichia coli ATCC 25922 after 24 hrs by macrobroth dilution method in the presence of bovine serum albumin

Pseudomonas aeruginosa [14] = test: microbe, parasite or virus in culture; format: functional; details: ATCC 27853, 24 h
Description: Antibacterial activity against Pseudomonas aeruginosa ATCC 27853 after 24 hrs by macrobroth dilution method

Escherichia coli [15] = test: microbe, parasite or virus in culture; format: functional; details: isolate CAN-ICU 61714, 24 h; remark: listed apart in the source
Description: Antibacterial activity against Escherichia coli isolate CAN-ICU 61714 after 24 hrs by macrobroth dilution method in the presence of bovine serum albumin

Escherichia coli [16] = test: microbe, parasite or virus in culture; format: functional; details: isolate CAN-ICU 63074, 24 h
Description: Antibacterial activity against Escherichia coli isolate CAN-ICU 63074 after 24 hrs by macrobroth dilution method

[17] = Toxicity in human erythrocytes assessed as hemolysis at 100 ug/ml by spectrophotometry; details: at 100 µg/mL
Enterococcus faecalis [18] = test: microbe, parasite or virus in culture; format: functional; details: ATCC 29212, 24 h; remark: listed apart in the source
Description: Antibacterial activity against Enterococcus faecalis ATCC 29212 after 24 hrs by macrobroth dilution method

Klebsiella pneumoniae [19] = test: microbe, parasite or virus in culture; format: functional; details: ATCC 13883, 24 h; remark: listed apart in the source
Description: Antibacterial activity against Klebsiella pneumoniae ATCC 13883 after 24 hrs by macrobroth dilution method

Acinetobacter baumannii [20] = test: microbe, parasite or virus in culture; format: functional; details: isolate CAN-ICU 63169, 24 h; remark: listed apart in the source
Description: Antibacterial activity against Acinetobacter baumannii 63169 isolate CAN-ICU after 24 hrs by macrobroth dilution method

Pseudomonas aeruginosa [21] = test: microbe, parasite or virus in culture; format: functional; details: ATCC 27853, 24 h; remark: listed apart in the source
Description: Antibacterial activity against Pseudomonas aeruginosa ATCC 27853 after 24 hrs by macrobroth dilution method in the presence of bovine serum albumin

Streptococcus pneumoniae [22] = test: microbe, parasite or virus in culture; format: functional; details: ATCC 49619, 24 h; remark: listed apart in the source
Description: Antibacterial activity against Streptococcus pneumoniae ATCC 49619 after 24 hrs by macrobroth dilution method

Pseudomonas aeruginosa [23] = test: microbe, parasite or virus in culture; format: functional; details: isolate CAN-ICU 62308, 24 h; remark: listed apart in the source
Description: Antibacterial activity against Pseudomonas aeruginosa isolate CAN-ICU 62308 after 24 hrs by macrobroth dilution method

Escherichia coli [24] = test: microbe, parasite or virus in culture; format: functional; details: isolate CAN-ICU 63074, 24 h; remark: listed apart in the source
Description: Antibacterial activity against Escherichia coli isolate CAN-ICU 63074 after 24 hrs by macrobroth dilution method in the presence of bovine serum albumin

Staphylococcus aureus [25] = test: microbe, parasite or virus in culture; format: functional; details: ATCC 29213, 24 h; remark: listed apart in the source
Description: Antibacterial activity against Staphylococcus aureus ATCC 29213 after 24 hrs by macrobroth dilution method

[26] = system: Staphylococcus epidermidis; test: microbe, parasite or virus in culture; format: functional; details: Staphylococcus epidermidis, 81388, 24 h; remark: listed apart in the source
Description: Antibacterial activity against methicillin-susceptible Staphylococcus epidermidis 81388 after 24 hrs by macrobroth dilution method in the presence of bovine serum albumin

[27] = system: Stenotrophomonas maltophilia; test: microbe, parasite or virus in culture; format: functional; details: isolate CAN-ICU 62584, 24 h; remark: listed apart in the source
Description: Antibacterial activity against Stenotrophomonas maltophilia isolate CAN-ICU 62584 after 24 hrs by macrobroth dilution method

[28] = system: Staphylococcus epidermidis; test: microbe, parasite or virus in culture; format: functional; details: isolate CAN-ICU61589, 24 h
Description: Antibacterial activity against methicillin-resistant Staphylococcus epidermidis isolate CAN-ICU 61589 after 24 hrs by macrobroth dilution method

Staphylococcus aureus [29] = test: microbe, parasite or virus in culture; format: functional; details: ATCC 33592, 24 h; remark: listed apart in the source
Description: Antibacterial activity against methicillin-resistant Staphylococcus aureus ATCC 33592 after 24 hrs by macrobroth dilution method in the presence of bovine serum albumin

Enterococcus faecium [30] = test: microbe, parasite or virus in culture; format: functional; details: ATCC 27270, 24 h; remark: listed apart in the source
Description: Antibacterial activity against Enterococcus faecium ATCC 27270 after 24 hrs by macrobroth dilution method

Escherichia coli [31] = test: microbe, parasite or virus in culture; format: functional; details: ATCC 25922, 24 h; remark: listed apart in the source
Description: Antibacterial activity against Escherichia coli ATCC 25922 after 24 hrs by macrobroth dilution method

Cc1cc(OCCCCc2cn(C[C@H]3O[C@@H](O[C@@H]4[C@@H](O)[C@H](N)C[C@H](N)[C@H]4O[C@H]4O[C@H](CN)[C@@H](O)[C@H](O)[C@H]4N)[C@H](O)[C@@H]3O[C@H]3O[C@@H](CN)[C@@H](O)[C@H](O)[C@H]3N)nn2)cc(C)c1Cl
MIC90 (Acinetobacter baumannii [1]): 512 µg/mL (≈ 584 µM)
MIC90 (Escherichia coli [2]): 16 µg/mL (≈ 18.3 µM)
MIC90 (Klebsiella pneumoniae [3]): 4 µg/mL (≈ 4.56 µM)
MIC90 (Enterococcus faecalis [4]): 128 µg/mL (≈ 146 µM)
MIC90 (Streptococcus pneumoniae [5]): 256 µg/mL (≈ 292 µM)
MIC90 [6]: 8 µg/mL (≈ 9.13 µM)
MIC90 [7]: > 512 µg/mL
MIC90 (Staphylococcus aureus [8]): 32 µg/mL (≈ 36.5 µM)
MIC90 [9]: 8 µg/mL (≈ 9.13 µM)
MIC90 (Enterococcus faecium [10]): 32 µg/mL (≈ 36.5 µM)
MIC90 (Pseudomonas aeruginosa [11]): 256 µg/mL (≈ 292 µM)
MIC90 (Staphylococcus aureus [12]): 128 µg/mL (≈ 146 µM)
MIC90 (Escherichia coli [13]): 32 µg/mL (≈ 36.5 µM)
MIC90 (Pseudomonas aeruginosa [14]): 512 µg/mL (≈ 584 µM)
MIC90 (Escherichia coli [15]): 16 µg/mL (≈ 18.3 µM)
MIC90 (Escherichia coli [16]): 128 µg/mL (≈ 146 µM)
hemolysis at 100 ug/ml [17]: 0.75%
MIC90 (Enterococcus faecalis [18]): 128 µg/mL (≈ 146 µM)
MIC90 (Klebsiella pneumoniae [19]): 4 µg/mL (≈ 4.56 µM)
MIC90 (Acinetobacter baumannii [20]): 512 µg/mL (≈ 584 µM)
MIC90 (Pseudomonas aeruginosa [21]): > 512 µg/mL
MIC90 (Streptococcus pneumoniae [22]): 64 µg/mL (≈ 73 µM)
MIC90 (Pseudomonas aeruginosa [23]): 256 µg/mL (≈ 292 µM)
MIC90 (Escherichia coli [24]): 128 µg/mL (≈ 146 µM)
MIC90 (Staphylococcus aureus [25]): 16 µg/mL (≈ 18.3 µM)
MIC90 [26]: 8 µg/mL (≈ 9.13 µM)
MIC90 [27]: > 512 µg/mL
MIC90 [28]: 8 µg/mL (≈ 9.13 µM)
MIC90 (Staphylococcus aureus [29]): 256 µg/mL (≈ 292 µM)
MIC90 (Enterococcus faecium [30]): 16 µg/mL (≈ 18.3 µM)
MIC90 (Escherichia coli [31]): 32 µg/mL (≈ 36.5 µM)

Cc1cc(OCc2cn(C[C@H]3O[C@@H](O[C@@H]4[C@@H](O)[C@H](N)C[C@H](N)[C@H]4O[C@H]4O[C@H](CN)[C@@H](O)[C@H](O)[C@H]4N)[C@H](O)[C@@H]3O[C@H]3O[C@@H](CN)[C@@H](O)[C@H](O)[C@H]3N)nn2)cc(C)c1Cl
MIC90 (Acinetobacter baumannii [1]): > 512 µg/mL
MIC90 (Escherichia coli [2]): 16 µg/mL (≈ 19.2 µM)
MIC90 (Klebsiella pneumoniae [3]): 4 µg/mL (≈ 4.79 µM)
MIC90 (Enterococcus faecalis [4]): 128 µg/mL (≈ 153 µM)
MIC90 (Streptococcus pneumoniae [5]): 128 µg/mL (≈ 153 µM)
MIC90 [6]: 8 µg/mL (≈ 9.59 µM)
MIC90 [7]: > 512 µg/mL
MIC90 (Staphylococcus aureus [8]): 32 µg/mL (≈ 38.4 µM)
MIC90 [9]: 8 µg/mL (≈ 9.59 µM)
MIC90 (Enterococcus faecium [10]): 64 µg/mL (≈ 76.7 µM)
MIC90 (Pseudomonas aeruginosa [11]): 256 µg/mL (≈ 307 µM)
MIC90 (Staphylococcus aureus [12]): 256 µg/mL (≈ 307 µM)
MIC90 (Escherichia coli [13]): 32 µg/mL (≈ 38.4 µM)
MIC90 (Pseudomonas aeruginosa [14]): 512 µg/mL (≈ 614 µM)
MIC90 (Escherichia coli [15]): 16 µg/mL (≈ 19.2 µM)
MIC90 (Escherichia coli [16]): 128 µg/mL (≈ 153 µM)
hemolysis at 100 ug/ml [17]: 0.75%
MIC90 (Enterococcus faecalis [18]): 64 µg/mL (≈ 76.7 µM)
MIC90 (Klebsiella pneumoniae [19]): 8 µg/mL (≈ 9.59 µM)
MIC90 (Acinetobacter baumannii [20]): > 512 µg/mL
MIC90 (Pseudomonas aeruginosa [21]): 512 µg/mL (≈ 614 µM)
MIC90 (Streptococcus pneumoniae [22]): 64 µg/mL (≈ 76.7 µM)
MIC90 (Pseudomonas aeruginosa [23]): 256 µg/mL (≈ 307 µM)
MIC90 (Escherichia coli [24]): 128 µg/mL (≈ 153 µM)
MIC90 (Staphylococcus aureus [25]): 16 µg/mL (≈ 19.2 µM)
MIC90 [26]: 8 µg/mL (≈ 9.59 µM)
MIC90 [27]: > 512 µg/mL
MIC90 [28]: 8 µg/mL (≈ 9.59 µM)
MIC90 (Staphylococcus aureus [29]): 512 µg/mL (≈ 614 µM)
MIC90 (Enterococcus faecium [30]): 128 µg/mL (≈ 153 µM)
MIC90 (Escherichia coli [31]): 16 µg/mL (≈ 19.2 µM)

Cc1cc(O)cc(C)c1Cl [CHLOROXYLENOL]
MIC90 (Acinetobacter baumannii [1]): > 512 µg/mL
MIC90 (Escherichia coli [2]): 256 µg/mL (≈ 1630 µM)
MIC90 (Klebsiella pneumoniae [3]): > 512 µg/mL
MIC90 (Enterococcus faecalis [4]): > 512 µg/mL
MIC90 (Streptococcus pneumoniae [5]): > 512 µg/mL
MIC90 [6]: 32 µg/mL (≈ 204 µM)
MIC90 [7]: > 512 µg/mL
MIC90 (Staphylococcus aureus [8]): 512 µg/mL (≈ 3270 µM)
MIC90 [9]: 512 µg/mL (≈ 3270 µM)
MIC90 (Enterococcus faecium [10]): > 512 µg/mL
MIC90 (Pseudomonas aeruginosa [11]): > 512 µg/mL
MIC90 (Staphylococcus aureus [12]): 64 µg/mL (≈ 409 µM)
MIC90 (Escherichia coli [13]): > 512 µg/mL
MIC90 (Pseudomonas aeruginosa [14]): 512 µg/mL (≈ 3270 µM)
MIC90 (Escherichia coli [15]): > 512 µg/mL
MIC90 (Escherichia coli [16]): 256 µg/mL (≈ 1630 µM)
MIC90 (Enterococcus faecalis [18]): 256 µg/mL (≈ 1630 µM)
MIC90 (Klebsiella pneumoniae [19]): 256 µg/mL (≈ 1630 µM)
MIC90 (Acinetobacter baumannii [20]): 128 µg/mL (≈ 817 µM)
MIC90 (Pseudomonas aeruginosa [21]): > 512 µg/mL
MIC90 (Streptococcus pneumoniae [22]): 128 µg/mL (≈ 817 µM)
MIC90 (Pseudomonas aeruginosa [23]): 256 µg/mL (≈ 1630 µM)
MIC90 (Escherichia coli [24]): > 512 µg/mL
MIC90 (Staphylococcus aureus [25]): 32 µg/mL (≈ 204 µM)
MIC90 [26]: 512 µg/mL (≈ 3270 µM)
MIC90 [27]: 128 µg/mL (≈ 817 µM)
MIC90 [28]: 16 µg/mL (≈ 102 µM)
MIC90 (Staphylococcus aureus [29]): 512 µg/mL (≈ 3270 µM)
MIC90 (Enterococcus faecium [30]): 256 µg/mL (≈ 1630 µM)
MIC90 (Escherichia coli [31]): 256 µg/mL (≈ 1630 µM)

Oc1cc(Cl)ccc1Oc1ccc(Cl)cc1Cl [TRICLOSAN]
MIC90 (Acinetobacter baumannii [1]): 128 µg/mL (≈ 442 µM)
MIC90 (Escherichia coli [2]): 1 µg/mL (≈ 3.45 µM)
MIC90 (Klebsiella pneumoniae [3]): 32 µg/mL (≈ 111 µM)
MIC90 (Enterococcus faecalis [4]): 512 µg/mL (≈ 1770 µM)
MIC90 (Streptococcus pneumoniae [5]): 256 µg/mL (≈ 884 µM)
MIC90 [6]: 1 µg/mL (≈ 3.45 µM)
MIC90 [7]: > 512 µg/mL
MIC90 (Staphylococcus aureus [8]): 0.5 µg/mL (≈ 1.73 µM)
MIC90 [9]: 1 µg/mL (≈ 3.45 µM)
MIC90 (Enterococcus faecium [10]): 512 µg/mL (≈ 1770 µM)
MIC90 (Pseudomonas aeruginosa [11]): > 512 µg/mL
MIC90 (Staphylococcus aureus [12]): ≤ 0.25 µg/mL
MIC90 (Escherichia coli [13]): 16 µg/mL (≈ 55.3 µM)
MIC90 (Pseudomonas aeruginosa [14]): > 512 µg/mL
MIC90 (Escherichia coli [15]): 16 µg/mL (≈ 55.3 µM)
MIC90 (Escherichia coli [16]): 1 µg/mL (≈ 3.45 µM)
MIC90 (Enterococcus faecalis [18]): 8 µg/mL (≈ 27.6 µM)
MIC90 (Klebsiella pneumoniae [19]): 1 µg/mL (≈ 3.45 µM)
MIC90 (Acinetobacter baumannii [20]): 8 µg/mL (≈ 27.6 µM)
MIC90 (Pseudomonas aeruginosa [21]): > 512 µg/mL
MIC90 (Streptococcus pneumoniae [22]): 128 µg/mL (≈ 442 µM)
MIC90 (Pseudomonas aeruginosa [23]): 64 µg/mL (≈ 221 µM)
MIC90 (Escherichia coli [24]): 64 µg/mL (≈ 221 µM)
MIC90 (Staphylococcus aureus [25]): 0.5 µg/mL (≈ 1.73 µM)
MIC90 [26]: 1 µg/mL (≈ 3.45 µM)
MIC90 [27]: 512 µg/mL (≈ 1770 µM)
MIC90 [28]: ≤ 0.25 µg/mL
MIC90 (Staphylococcus aureus [29]): 1 µg/mL (≈ 3.45 µM)
MIC90 (Enterococcus faecium [30]): 16 µg/mL (≈ 55.3 µM)
MIC90 (Escherichia coli [31]): ≤ 0.25 µg/mL
